Test results reported in patent US5134137A, “Cephalosporin antibiotics” (The Upjohn Company, priority 1990, dated 1992).
Values after ≈ are worked out from the molar mass of the structure shown. Where two headings read alike, the source gives them in different places.

Key:
Strep. faecalis = experiment: MIC, agar dilution, Strep. faecalis; assay type: cell-based; conditions: Enterococcus faecalis
Description: Stock solution of each test antibiotic compound were prepared to have a concentration of 2 mg. of the test compound per milliliter in sterile water of 0.1M ammonium acetate solution. The amount of each compound used was adjusted for base compound activity as calculated from the purity data for the selected batch of compound.
The dilution procedure described by Washington and Sutter [Manual of Clinical Microbiology, 3rd, Edit. (Lennett, E. H. et al, Eds.), pp. 453-458 (1980), American Society for Microbiology, Washington, D.C.] was modified so that serial concentrations of 128 to 0.0625 microgram/ml. in sterile water was obtained. Then 1.5 ml. aliquots of these test antibiotic dilution mixtures are added to 13.5 molten (50° C.) Mueller-Hinton agar. Each resulting mixture is poured into 15×100 mm, sterile Petri plates and allowed to dry at room temperature overnight.
Test bacterial cultures are maintained at -70° C. on glass beads. [See R. J. Yancey, Jr. et al, Amer. Jr. of Vet. Research, 48, No. 7, pp. 1050-1053, (1987)]. At least one bacteria-laden bead per culture is dropped into one ml. of brain heart infusion (BHI) broth for overnight culture at 37° C. in 5% V/V carbon dioxide in air atmosphere.
On the data of assay, 2 to 8 drops of the bacterial broth cultures are transferred to fresh BHI broth (1 ml.) and the mixture is incubated for 4 to 6 hours at 37° C. in a 5% V/V carbon dioxide in air atmosphere. The resulting cultures are then diluted to match a 0.5 MacFarland standard and further diluted 1:20 V/V with sterile saline solution.
A 0.001 ml. drop of the resulting mixture, containing approximately 10^3 to 10^4 colony forming units (CFU) of each test bacteria organism, is dispensed onto the surface of the test antibiotic compound test plates with a Steer's type replicator. The resulting innoculated plates are incubated 16 to 18 hours at 37° C. with a carbon dioxide atmosphere.

Salmonella typhimurium = experiment: MIC, agar dilution, Salmonella typhimurium; assay type: cell-based; conditions: Salmonella enterica, read-out: MIC
How it was run: (§1)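 Each organism receives an inoculum of approx. 10^3–10^4 CFU, taken from a 5% CO2 BHI subculture standardised to 0.5 McFarland and diluted 1:20. It is spotted on Mueller-Hinton agar containing the compound, then incubated for 16–18 h at 37 °C with CO2.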

Streptococcus bovis = experiment: MIC, agar dilution, Streptococcus bovis; assay type: cell-based; conditions: Streptococcus equinus; strain UC6281; read-out: MIC
How it was run: as §1

Streptococcus suis = experiment: MIC, agar dilution, Streptococcus suis; assay type: cell-based
How it was run: as §1

Pasteurella hemolytica = experiment: MIC (minimum inhibitory concentration), agar dilution, Pasteurella hemolytica; assay type: cell-based; conditions: Pasteurella, read-out: MIC
How it was run: as §1

Pasteurella multocida = experiment: MIC, agar dilution, Pasteurella multocida; assay type: cell-based; conditions: Pasteurella multocida; strain B77-18; read-out: MIC
How it was run: as §1

Micrococcus luteus = experiment: MIC, agar dilution, Micrococcus luteus; assay type: cell-based; conditions: Micrococcus luteus; strain UC130; read-out: MIC
How it was run: as §1

[1] = Serum half life / duration of antibiotic action
[2] = Stability of the compound; assay type: physicochemical
[3] = TYPHIMURIUM / UC6162, strain UC6162
[4] = TYPHIMURIUM / UC6164, strain UC6164
[5] = Streptococcus suis, strain 538-2, read-out: MIC

Compound	MIC (Strep. faecalis; strain ATCC29212) [µg/mL]	MIC (Strep. faecalis; strain UC241) [µg/mL]	MIC (Strep. faecalis; strain UC694) [µg/mL]	MIC (Salmonella typhimurium; [3]) [µg/mL]	MIC (Salmonella typhimurium; [4]) [µg/mL]	MIC (Streptococcus bovis) [µg/mL]	MIC (Streptococcus suis; [5]) [µg/mL]	MIC (Streptococcus suis; strain 650-2) [µg/mL]	MIC (Pasteurella hemolytica; strain B77-19) [µg/mL]	MIC (Pasteurella hemolytica; strain UC6531) [µg/mL]	MIC (Pasteurella hemolytica; strain UC6532) [µg/mL]	MIC (Pasteurella multocida) [µg/mL]	MIC (Micrococcus luteus) [µg/mL]	duration of antibiotic action ([1]; compared with ceftiofur)	serum half life ([1]; inferred from results against Salmonella typhimurium)	stability in alkaline solution ([2]; alkaline solution)	stability in the dry state ([2]; dry state, white powder)	stability in strongly acidic media ([2]; strongly acidic media)
CO/N=C(\C(=O)N[C@@H]1C(=O)N2C(C(=O)O)=C(CO)CS[C@H]12)c1csc(N)n1 [desacetyl cefotoxime, 7-[2-(2-amino-1,3-thiazol-4-yl)-(syn)-2-methoxyiminoacetamido]-3-hydroxymethylceph-3-em-4-carboxylic acid, reference compound]	> 32	> 32	> 32	0.13 (≈ 0.314 µM)	0.13 (≈ 0.314 µM)	≤ 0.06	≤ 0.06	≤ 0.06	≤ 0.06	≤ 0.06	≤ 0.06	≤ 0.06	–	–	–	–	–	–
CO/N=C(\C(=O)N[C@@H]1C(=O)N2C(C(=O)O)=C(CSC(=O)c3ccco3)CS[C@H]12)c1csc(N)n1 [ceftiofur, 7-[2-(amino-1,3-thiazol-4-yl)-2-(methoxyimino)acetamido]-3-[(fur-2-ylcarbonyl)thiomethyl]-3-cephem-4-carboxylic acid, reference compound]	32 (≈ 61.1 µM)	> 32	> 32	0.25 (≈ 0.477 µM)	0.25 (≈ 0.477 µM)	≤ 0.06	≤ 0.06	≤ 0.06	≤ 0.06	≤ 0.06	≤ 0.06	≤ 0.06	0.25 (≈ 0.477 µM)	–	–	–	–	–
CO/N=C(\C(=O)N[C@@H]1C(=O)N2C(C(=O)O)=C(CS)CS[C@H]12)c1csc(N)n1 [Formula III compound, 3-mercaptomethyl-7β-[2-(2-amino-1,3-thiazol-4-yl)-(Z)-2-(methoxyimino)acetamido]ceph-3-em-4-carboxylic acid]	> 32	> 32	> 32	0.5	0.5	≤ 0.06	≤ 0.06	≤ 0.06	≤ 0.06	≤ 0.06	≤ 0.06	≤ 0.06	–	biologically longer acting as an antibiotic than ceftiofur	longer serum half life	decomposes quickly	stable in the dry state	converted to the 3,4-thio-lactone derivative
